Assay results taken from ChEMBL document CHEMBL1138595, “(+/-)-Nantenine analogs as antagonists at human 5-HT(2A) receptors: C1 and flexible congeners” (Bioorg Med Chem Lett, 2009).

Biological target: 5-hydroxytryptamine receptor 2A (Homo sapiens, UniProt P28223)
Assay: Antagonist activity at human 5HT2A receptor expressed in EC80 serotonin-stimulated CHOK1 cells by calcium mobilization assay
Assay type: functional, cell-based, CHO-K1

Sequence of 5-hydroxytryptamine receptor 2A (P28223 whole entry): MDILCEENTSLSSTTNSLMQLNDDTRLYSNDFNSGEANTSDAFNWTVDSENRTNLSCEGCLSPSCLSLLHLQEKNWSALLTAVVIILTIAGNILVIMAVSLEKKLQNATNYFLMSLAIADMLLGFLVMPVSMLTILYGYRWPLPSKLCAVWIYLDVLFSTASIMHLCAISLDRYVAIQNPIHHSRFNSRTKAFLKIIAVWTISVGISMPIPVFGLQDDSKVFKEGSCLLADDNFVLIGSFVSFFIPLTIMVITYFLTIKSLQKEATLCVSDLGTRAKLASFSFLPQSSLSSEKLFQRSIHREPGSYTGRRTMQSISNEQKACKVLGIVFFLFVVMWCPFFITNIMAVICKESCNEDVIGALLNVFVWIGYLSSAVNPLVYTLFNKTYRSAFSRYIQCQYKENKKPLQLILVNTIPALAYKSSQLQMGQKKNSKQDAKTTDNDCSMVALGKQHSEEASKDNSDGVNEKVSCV

An IC50 of 4.6 µM was found for `COc1cc2c3c(c1OCc1ccccc1)-c1cc4c(cc1CC3N(C)CC2)OCO4` (stereo unspecified) in this work.
